Test results published in article PMC6011838, “Transcriptome analysis and anaerobic C4‐dicarboxylate transport in Actinobacillus succinogenes” (MicrobiologyOpen, 2017).

Target: T1, Asuc_1999 (Actinobacillus succinogenes, UniProt A6VQU8)
T1 construct: untagged gene in pBAD30 derivative pMB64, expressed in E. coli IMW529 (deficient in anaerobic fumarate transport); 555 amino acids; cell suspension uptake
Assay: […] uptake, filtration assay, E. coli cell suspension
Assay type: cell-based
Conditions: anaerobic; phosphate buffer pH 7, 1 mmol/L MgSO4; 37°C; 1 min uptake; 20 mmol/L lactose preincubation; labelled compound

| SMILES | Km [µM] |
| --- | --- |
| O=C(O)/C=C/C(=O)O [fumarate] | 452 |
| O=C(O)CCC(=O)O [succinate] | 364 |
